The test system of this assay is STAG1 Exon 5. Nature of the assay: STAG1 Exon 5 inclusion in control or STAG2 KO cells following treatment with H3B-8800. It counts as cell-based.

Regarding H3B-8800, the “STAG1 Exon 5 skipping” value (STAG2 KO versus control cells, following treatment of H3B-8800) was “increased STAG1 Exon 5 skipping”. For the same substance, the “sensitivity of cohesin-mutant AML cells to splicing inhibitor” value (cohesin mutations, AML cells) is recorded as “highly sensitive”.

The values are drawn from patent US20250243486A1, “COMPOSITIONS AND METHODS FOR INHIBITING STAG1 EXPRESSION AND USES THEREOF” (PRESIDENT AND FELLOWS OF HARVARD COLLEGE, priority 2022, published 2025).
